Tests used:
[1] = system: subcutaneous B16F10 melanoma tumor; experiment: Biodistribution of 99mTc complexes in mice bearing subcutaneous B16F10 melanoma tumor; format: in vivo; details: for tumor uptake and retention (in words): mouse, in vivo
Excerpt: Biodistribution of 99 mTc complexes in mice bearing subcutaneous B16F10 melanoma tumor was studied for complexes Tc-1-Tc-6.

σ1 receptor = target: T1, σ1 receptor (Cavia porcellus, UniProt Q60492); experiment: σ1 receptor competition binding assay, [3H]-(+)-pentazocine; parameters: species or system guinea pig
T1 construct: The membranes were prepared from guinea pig brain (minus cerebellum) as described above; from tissue; host or cells: guinea pig brain (minus cerebellum) membranes
T1 sequence (Q60492 whole entry): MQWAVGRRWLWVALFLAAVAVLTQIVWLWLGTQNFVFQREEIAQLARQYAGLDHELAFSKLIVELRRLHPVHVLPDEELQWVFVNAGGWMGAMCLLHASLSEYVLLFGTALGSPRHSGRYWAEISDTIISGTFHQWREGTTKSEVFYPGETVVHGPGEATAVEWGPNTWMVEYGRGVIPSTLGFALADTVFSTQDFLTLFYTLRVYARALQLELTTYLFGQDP
Description: […] See, Mol. Neuropharmacol. 1993, 3, 117-126.
The membranes were prepared from guinea pig brain (minus cerebellum) as described above and stored at −70° C. Twelve concentrations of the nonradioactive rhenium complexes ranging from 1×10^−11 to 1×10^−3 and protein samples (0.15 mg of membrane protein) were incubated with 5 nM [^3H]-(+)-pentazocine in a total volume of 0.25 mL of Tris-HCl (50 mM, pH 8.0). Incubations were carried out for 120 min at 25° C. All assays were terminated by dilution with 5 mL of ice-cold Tris-HCl (10 mM), pH 8.0, and solution were filtered through glass-fiber filters (Whatman GF/F; presoaked in 0.5% polyethyleneimine for 30 min at 25° C.). Filters were then washed three times with 5 mL of ice-cold Tris-HCl (50 mM, pH 8.0), and counted in Hionic-Fluor cocktail (Packard, Groningen, the Netherlands). The corresponding IC50 values were determined with Origin 6.0 software (OriginLab, Northampton, Mass.) and were used for the calculation of the apparent Ki values with the Cheng-Prusoff equation. See, Biochem. Pharmacol. 1973, 22, 3099-3108.

D2 receptors = D2 receptors (Homo sapiens, UniProt P14416); experiment: D2 receptor affinity; format: binding
D2 receptors, sequence (P14416 whole entry): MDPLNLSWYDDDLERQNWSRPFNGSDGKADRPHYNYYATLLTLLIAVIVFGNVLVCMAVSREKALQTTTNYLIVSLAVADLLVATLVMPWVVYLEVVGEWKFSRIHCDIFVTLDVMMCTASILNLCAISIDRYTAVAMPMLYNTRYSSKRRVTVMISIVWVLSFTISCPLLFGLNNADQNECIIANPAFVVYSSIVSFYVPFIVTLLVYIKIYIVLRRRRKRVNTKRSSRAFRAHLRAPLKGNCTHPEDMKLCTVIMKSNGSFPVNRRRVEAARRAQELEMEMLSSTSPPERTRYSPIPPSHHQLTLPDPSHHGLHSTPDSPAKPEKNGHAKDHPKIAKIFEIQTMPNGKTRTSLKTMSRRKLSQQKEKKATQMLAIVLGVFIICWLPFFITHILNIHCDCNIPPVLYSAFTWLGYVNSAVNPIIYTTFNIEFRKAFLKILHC

σ2 receptor = target: T2, σ2 receptor (Rattus norvegicus, UniProt Q5U3Y7); experiment: σ2 receptor competition binding assay, [3H]-DTG, rat liver membranes
T2 construct: Rat liver membranes were prepared from male Sprague-Dawley rat livers as previously described; from tissue; host or cells: rat (Sprague-Dawley) liver membranes
T2 sequence (Q5U3Y7 1-176): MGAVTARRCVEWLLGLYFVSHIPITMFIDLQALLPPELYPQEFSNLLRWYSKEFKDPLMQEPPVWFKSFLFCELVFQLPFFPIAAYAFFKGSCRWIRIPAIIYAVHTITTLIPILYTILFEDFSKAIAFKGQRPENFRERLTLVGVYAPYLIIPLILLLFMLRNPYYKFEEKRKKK
Description: Rat liver membranes were prepared from male Sprague-Dawley rat livers as previously described (Eur. J. Pharmacol.-Mol. Pharmacol. Sect. 1994, 268, 9-18). The in vitro σ2 receptor binding affinities of rhenium coordinated complexes were determined in a competition assay using rat livers and [^3H]-DTG (31 Ci/mmol, NEN Life Science Inc., Cambridge, Mass.) as radioligand in the presence of 10 μM 1-pyrrolidinylethyl 3,4-dichlorophenylacetate oxalate (ACT915 oxalate) to mask σ1 receptors (Bioorg. & Med. Chem. Lett. 2000, 10, 17-18). Competition assays were performed with twelve concentrations of the nonradioactive rhenium complexes ranging from […] to 1×10^−3 and protein samples (0.15 mg of membrane protein) in a total volume of 0.25 mL of Tris-HCl (50 mM, pH 8.0) for 120 min at 25° C. All other manipulations and data analysis were performed as described vide supra for the σ1—receptor assays.

5HT1A receptor = target: T3, 5HT1A receptor (Rattus norvegicus, UniProt P19327); experiment: 5HT1A receptor competition binding assay, [3H]-8-OH-DPAT, rat hippocampus
T3 construct: hippocampal homogenates that were prepared from Sprague Dawley rat hippocampus; from tissue; host or cells: rat (Sprague-Dawley) hippocampus membranes
T3 sequence (P19327 1-422): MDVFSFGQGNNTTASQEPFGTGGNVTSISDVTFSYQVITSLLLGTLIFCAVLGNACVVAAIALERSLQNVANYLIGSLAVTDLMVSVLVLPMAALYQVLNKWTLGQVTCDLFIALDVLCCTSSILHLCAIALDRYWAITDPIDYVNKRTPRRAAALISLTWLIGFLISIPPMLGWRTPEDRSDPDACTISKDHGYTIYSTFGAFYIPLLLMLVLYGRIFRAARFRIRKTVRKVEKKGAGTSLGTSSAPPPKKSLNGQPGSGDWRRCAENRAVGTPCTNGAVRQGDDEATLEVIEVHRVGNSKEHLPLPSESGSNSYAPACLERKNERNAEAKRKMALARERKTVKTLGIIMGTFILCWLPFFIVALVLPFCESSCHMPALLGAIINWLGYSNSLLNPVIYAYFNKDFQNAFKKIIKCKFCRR
Description: The in vitro 5HT1A binding affinities of rhenium coordinated complexes were determined in a competition assay using rat hippocampus and high-affinity 5HT1A-ligand [^3H]-8-OH-DPAT (135 Ci/mmol, NEN Life Science Inc., Cambridge, Mass.). See, Brain Res. 1995, 673, 217-225.
Male Sprague-Dawley rats (weighing 150-170 g) were sacrificed using anesthesia agent isoflurane. The brains were rapidly removed, and hippocampus, frontal cortex, hypothalamus, and striatum were hand-dissected on ice and stored at −70° C. Tissue was thawed at room temperature and homogenized using a Brinkmann Polytron tissue disrupter in 50 volumes (wt/vol) of ice-cold 50 mM Tris-HCl buffer (pH 7.4). The suspension was centrifuged twice at 27,000 g for 20 min at 4° C. The membrane pellets were resuspended in 50 volumes of (wt/vol) Tris-HCl buffer and incubated at 37° C. for 20 min in a water bath, before a final centrifugation step (27,000 g; 20 min; 4° C.). The final tissue pellets were stored at −70° C. until assayed.
Twelve concentrations of the nonradioactive rhenium complexes ranging from 1×10^−11 to 1×10^−4 and protein samples (0.15 mg of membrane protein) were incubated with 1.5 nM [^3H]-8-OH-DPAT in a total volume of 0.25 mL of Tris-HCl (50 mM, pH 7.4, 10 mM MgSO4). Incubations were carried out for 60 min at 25° C. All assays were terminated by dilution with 5 mL of ice-cold Tris-HCl (10 mM), pH 7.4, and solution were filtered through glass-fiber filters (Whatman GF/F; presoaked in 0.5% polyethyleneimine for 30 min at 25° C.). Filters were then washed three times with 5 mL of ice-cold Tris-HCl (50 mM, pH 7.4), and counted in Hionic-Fluor cocktail (Packard, Groningen, the Netherlands). The corresponding IC50 values were determined with Origin 6.0 software (OriginLab, Northampton, Mass.) and were used for the calculation of the apparent Ki values with the Cheng-Prusoff equation. See, Biochem. Pharmacol. 1973, 22, 3099-3108.
Rhenium complexes were synthesized by the reaction of [ReBr(CO)3(C4H8O)]2 with the final ligands in acetonitrile at room temperature. The in vitro 5-HT1A binding affinities of complexes Re(CO)3-L1-L9 were determined in competitive receptor binding assay using hippocampal homogenates that were prepared from Sprague Dawley rat hippocampus and the high-affinity [^3H]-8-OH-DPAT as the 5HT1A specific ligand.
The in vitro affinity of Re(CO)3-L complexes for the 5-HT1A receptors were assessed by their ability to compete with the high affinity 5HT1A radioligand [^3H]-8-OH-DPAT.

With `[99Tc][O]c1ccccc1CN(CCN1CCCCC1)Cc1ccccn1.[C-]#[O+].[C-]#[O+].[C-]#[O+]` [99 mTc-3] the “tumor uptake and retention (in words)” value [1] was “increase in tumor retention over time”.

`CCCN(CCCCCC[N+]12CC[S][Re-]13(=[O])[S]CC[N]3C(=O)C2)C1CCc2cccc(OC)c2C1` (stereo not drawn) [Re-45] was tested, and the Ki (σ1 receptor) was 0.041 ± 0.00358 µM, the Ki (D2 receptors) was 1.2 µM and the Ki (σ2 receptor) was 0.442 ± 0.106 µM. It also gave a Ki (5HT1A receptor) of 0.00121 ± 0.00013 µM.

For `[99Tc][O]c1ccccc1CN(CCCCCCN1CCCCC1)Cc1ccccn1.[C-]#[O+].[C-]#[O+].[C-]#[O+]` [Tc-5], the “tumor uptake and retention (in words)” value [1] was “increase in tumor retention over time”.

With `CCN(CC)CCN(Cc1ccccn1)Cc1ccccc1[O][99Tc].[C-]#[O+].[C-]#[O+].[C-]#[O+]` [99 mTc-2] the tumor uptake ([1]; 1 h postinjection) was 3.2 % ID/g and the “tumor retention over a 6 h period” value ([1]; share of tumor uptake retained over 6 h) was 65%.

`[99Tc][O]c1ccccc1CN(CCCN1CCCCC1)Cc1ccccn1.[C-]#[O+].[C-]#[O+].[C-]#[O+]` [Tc-4] was tested, and the “tumor uptake and retention (in words)” value [1] was “increase in tumor retention over time”.

Reference: US8747810B2, “Compositions and methods for imaging tissues, organs and tumors” (President and Fellows of Harvard College, priority 2009, dated 2014)
